Reference: patent publication US8614327B2 (Vertex Pharmaceuticals Incorporated, priority 2004, dated 2013)

Target: T1, ΔF508-CFTR (Homo sapiens, UniProt P13569, DEL508-508)
T1 construct: expressed in transfected cells
Assay: Membrane potential optical (FRET/VIPR) assay, identification of potentiator compounds
Type: cell-based
Conditions: Table 3, assay not given; for % Activity: relative efficacy
Procedure, shortened: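 Double-addition potentiator screen: compound delivered in gluconate-substituted Cl^--free medium, membrane potential followed via CC2-DMPE/DiSBAC2(3) FRET on VIPR. Cells were ΔF508-CFTR-expressing NIH3T3 mouse fibroblasts, held 2 h at 37° C. then 24 h at 27° C. before assay.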

T1 sequence (P13569 with tags, fused parts or gaps DEL508-508): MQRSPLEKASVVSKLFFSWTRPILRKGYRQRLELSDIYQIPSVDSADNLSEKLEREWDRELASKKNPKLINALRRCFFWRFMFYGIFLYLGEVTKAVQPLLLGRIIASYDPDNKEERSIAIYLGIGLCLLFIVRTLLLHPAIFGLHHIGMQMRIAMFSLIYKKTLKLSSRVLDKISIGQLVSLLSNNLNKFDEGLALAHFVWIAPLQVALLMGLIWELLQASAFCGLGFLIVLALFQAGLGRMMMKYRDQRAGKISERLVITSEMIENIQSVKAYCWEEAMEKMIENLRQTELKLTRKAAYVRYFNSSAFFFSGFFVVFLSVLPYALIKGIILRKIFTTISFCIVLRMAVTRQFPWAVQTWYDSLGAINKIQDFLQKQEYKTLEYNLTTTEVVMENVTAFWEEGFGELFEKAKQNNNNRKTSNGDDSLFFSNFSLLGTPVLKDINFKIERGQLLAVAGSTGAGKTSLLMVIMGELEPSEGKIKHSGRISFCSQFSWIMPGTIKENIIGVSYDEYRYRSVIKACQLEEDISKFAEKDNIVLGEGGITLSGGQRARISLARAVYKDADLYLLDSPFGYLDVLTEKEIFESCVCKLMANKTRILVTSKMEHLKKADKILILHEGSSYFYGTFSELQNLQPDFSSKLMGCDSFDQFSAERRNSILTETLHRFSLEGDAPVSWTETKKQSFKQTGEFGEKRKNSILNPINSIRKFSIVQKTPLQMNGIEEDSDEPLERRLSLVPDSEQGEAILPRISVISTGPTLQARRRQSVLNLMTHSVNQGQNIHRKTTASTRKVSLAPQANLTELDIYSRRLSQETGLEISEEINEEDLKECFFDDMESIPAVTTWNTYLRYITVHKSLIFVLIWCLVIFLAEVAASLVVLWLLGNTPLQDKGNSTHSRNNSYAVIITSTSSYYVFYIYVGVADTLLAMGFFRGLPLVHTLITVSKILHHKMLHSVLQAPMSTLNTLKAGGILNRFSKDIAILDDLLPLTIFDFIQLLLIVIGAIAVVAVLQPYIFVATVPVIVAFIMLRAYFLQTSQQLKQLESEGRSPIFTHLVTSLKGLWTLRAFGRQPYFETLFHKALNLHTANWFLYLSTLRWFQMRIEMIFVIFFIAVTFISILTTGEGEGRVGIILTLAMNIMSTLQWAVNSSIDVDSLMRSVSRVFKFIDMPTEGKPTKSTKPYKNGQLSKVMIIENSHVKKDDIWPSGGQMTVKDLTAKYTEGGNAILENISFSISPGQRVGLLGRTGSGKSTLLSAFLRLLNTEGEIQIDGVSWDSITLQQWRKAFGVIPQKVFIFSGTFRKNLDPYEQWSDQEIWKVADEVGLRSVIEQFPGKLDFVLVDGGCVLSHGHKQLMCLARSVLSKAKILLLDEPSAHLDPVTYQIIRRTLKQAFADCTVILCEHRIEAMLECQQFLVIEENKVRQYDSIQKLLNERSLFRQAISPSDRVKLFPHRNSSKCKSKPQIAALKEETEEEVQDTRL

EC50 | % Activity | Structure (SMILES)
< 10 µM | + (<25%) | Cc1cccc2c(=O)c(C(=O)Nc3cc(O)c(C(C)(C)C)cc3F)c[nH]c12 [Compound 625, N-(2-fluoro-5-hydroxy-4-tert-butyl-phenyl)-8-methyl-4-oxo-1H-quinoline-3-carboxamide]
25 to 60 µM | + (<25%) | CCC(=O)Nc1cccc(NC(=O)c2c[nH]c3ccccc3c2=O)c1 [Compound 81, 4-oxo-N-(3-propionylaminophenyl)-1H-quinoline-3-carboxamide]
10 to 25 µM | ++ (between 25% to 100%) | COc1ccc(C)cc1NC(=O)c1c[nH]c2ccccc2c1=O [Compound 120, N-(2-methoxy-5-methyl-phenyl)-4-oxo-1H-quinoline-3-carboxamide]
< 10 µM | ++ (between 25% to 100%) | O=C(Nc1ccc2cc(C(F)(F)F)[nH]c2c1)c1c[nH]c2ccccc2c1=O [Compound 537, 4-oxo-N-[2-(trifluoromethyl)-1H-indol-6-yl]-1H-quinoline-3-carboxamide]
< 10 µM | ++ (between 25% to 100%) | CC(C)(C)c1ccc(N)cc1NC(=O)c1c[nH]c2ccccc2c1=O [Compound 260, N-(5-Amino-2-tert-butyl-phenyl)-4-oxo-1H-quinoline-3-carboxamide]
< 10 µM | ++ (between 25% to 100%) | CN(c1ccc(F)cc1)S(=O)(=O)c1ccc2[nH]cc(C(=O)Nc3cc(O)c(C(C)(C)C)cc3C(C)(C)C)c(=O)c2c1 [Compound 137, 6-[(4-fluorophenyl)-methyl-sulfamoyl]-N-(5-hydroxy-2,4-ditert-butyl-phenyl)-4-oxo-1H-quinoline-3-carboxamide]
< 10 µM | ++ (between 25% to 100%) | COc1cc(NC(=O)c2c[nH]c3ccccc3c2=O)c(C(F)(F)F)cc1C(C)(C)C [Compound 421, N-[5-methoxy-4-tert-butyl-2-(trifluoromethyl)phenyl]-4-oxo-1H-quinoline-3-carboxamide]
10 to 25 µM | +++ (>100%) | CCC1(c2ccc(NC(=O)c3c[nH]c4ccccc4c3=O)cc2)CCC(=O)NC1=O (stereo not shown) [Compound 57, N-[4-(3-ethyl-2,6-dioxo-3-piperidyl)phenyl]-4-oxo-1H-quinoline-3-carboxamide]
10 to 25 µM | + (<25%) | O=C(Nc1ccc2ccccc2n1)c1c[nH]c2ccccc2c1=O [Compound 19, 4-oxo-N-(2-quinolyl)-1H-quinoline-3-carboxamide]
25 to 60 µM | + (<25%) | O=C(Nc1ccc(N2CCOCC2)nc1)c1c[nH]c2ccccc2c1=O [Compound 400, N-(6-morpholino-3-pyridyl)-4-oxo-1H-quinoline-3-carboxamide]
25 to 60 µM | + (<25%) | CCOc1cc(NC(=O)c2c[nH]c3ccccc3c2=O)c(OCC)cc1NC(=O)c1ccccc1 [Compound 7, N-(4-benzoylamino-2,5-diethoxy-phenyl)-4-oxo-1H-quinoline-3-carboxamide]
< 10 µM | ++ (between 25% to 100%) | CCc1cc(C(C)(C)C)c(O)cc1NC(=O)c1c[nH]c2ccccc2c1=O [Compound 659, N-(2-ethyl-5-hydroxy-4-tert-butyl-phenyl)-4-oxo-1H-quinoline-3-carboxamide]
< 10 µM | ++ (between 25% to 100%) | CCC(CC)(c1cc(F)c(NC(=O)c2cnc3ccccc3c2O)cc1O)C(C)(C)C [Compound 153, N-[4-(1,1-diethyl-2,2-dimethyl-propyl)-2-fluoro-5-hydroxy-phenyl]-4-hydroxy-quinoline-3-carboxamide]
< 10 µM | +++ (>100%) | C=C(C)c1ccccc1NC(=O)c1c[nH]c2ccccc2c1=O [Compound 445, N-(2-isopropenylphenyl)-4-oxo-1H-quinoline-3-carboxamide]
< 10 µM | ++ (between 25% to 100%) | O=C(Nc1ccc(OC(F)(F)F)c(N2CCCCC2)c1)c1c[nH]c2ccccc2c1=O [Compound 696, 4-oxo-N-[3-(1-piperidyl)-4-(trifluoromethoxy)phenyl]-1H-quinoline-3-carboxamide]
< 10 µM | ++ (between 25% to 100%) | Cc1ccc(-c2ccccc2NC(=O)c2c[nH]c3ccccc3c2=O)cc1 [Compound 181, 4-oxo-N-[2-(p-tolyl)phenyl]-1H-quinoline-3-carboxamide]
< 10 µM | ++ (between 25% to 100%) | Cc1ccc2[nH]cc(C(=O)Nc3cc(O)c(C4(C)CCCCC4)cc3F)c(=O)c2c1 [Compound 624, N-[2-fluoro-5-hydroxy-4-(1-methylcyclohexyl)-phenyl]-6-methyl-4-oxo-1H-quinoline-3-carboxamide]
< 10 µM | ++ (between 25% to 100%) | CC(C)(C)c1cc(C(C)(C)C)c(NC(=O)c2c[nH]c3c(Cl)cccc3c2=O)cc1O [Compound 663, 8-chloro-N-(5-hydroxy-2,4-ditert-butyl-phenyl)-4-oxo-1H-quinoline-3-carboxamide]

EC50 | % Activity | Structure (SMILES)
< 10 µM | ++ (between 25% to 100%) | O=C(Nc1cccc2ccccc12)c1c[nH]c2ccccc2c1=O [Compound 350, N-(1-naphthyl)-4-oxo-1H-quinoline-3-carboxamide]
< 10 µM | ++ (between 25% to 100%) | CC(C)(C)c1cc(C#N)c(NC(=O)c2c[nH]c3ccccc3c2=O)cc1O [Compound 476, N-(4-tert-Butyl-2-cyano-5-hydroxyphenyl)-1,4-dihydro-4-oxoquinoline-3-carboxamide]
< 10 µM | ++ (between 25% to 100%) | COc1ccc2[nH]cc(C(=O)Nc3ccc(N4CCC(C)(C)C4)cc3C(F)(F)F)c(=O)c2c1 [Compound 504, N-[4-(3,3-dimethylpyrrolidin-1-yl)-2-(trifluoromethyl)phenyl]-6-methoxy-4-oxo-1H-quinoline-3-carboxamide]
< 10 µM | ++ (between 25% to 100%) | CC(C)COC(=O)NCC(C)(C)c1ccc(NC(=O)c2c[nH]c3ccccc3c2=O)cc1 [Compound 251, [2-methyl-2-[4-[(4-oxo-1H-quinolin-3-yl)carbonylamino]phenyl]-propyl]aminoformic acid isobutyl ester]
< 10 µM | ++ (between 25% to 100%) | Cc1cc2ccc(NC(=O)c3c[nH]c4ccccc4c3=O)cc2[nH]1 [Compound 104, N-(2-methyl-1H-indol-6-yl)-4-oxo-1H-quinoline-3-carboxamide]
< 10 µM | ++ (between 25% to 100%) | O=C(Nc1cccc(Oc2ccccc2)c1)c1c[nH]c2ccccc2c1=O [Compound 87, 4-oxo-N-(3-phenoxyphenyl)-1H-quinoline-3-carboxamide]
10 to 25 µM | ++ (between 25% to 100%) | CC(=O)c1ccccc1NC(=O)c1c[nH]c2ccccc2c1=O [Compound 365, N-(2-acetylphenyl)-4-oxo-1H-quinoline-3-carboxamide]
10 to 25 µM | + (<25%) | Cc1cccc(NC(=O)c2c[nH]c3ccccc3c2=O)c1C#N [Compound 201, N-(2-cyano-3-methyl-phenyl)-4-oxo-1H-quinoline-3-carboxamide]
< 10 µM | ++ (between 25% to 100%) | CC(C)c1cc(C(F)(F)F)c(NC(=O)c2c[nH]c3ccccc3c2=O)cc1OCc1ccccc1 [Compound 570, N-[5-benzyloxy-4-isopropyl-2-(trifluoromethyl)phenyl]-4-oxo-1H-quinoline-3-carboxamide]
< 10 µM | ++ (between 25% to 100%) | CC(C)(C)c1ccc(NC(=O)c2c[nH]c3cccc(O)c3c2=O)cc1F [Compound 491, N-(3-fluoro-4-tert-butyl-phenyl)-5-hydroxy-4-oxo-1H-quinoline-3-carboxamide]
< 10 µM | ++ (between 25% to 100%) | O=C(Nc1cc2[nH]ccc2cc1F)c1c[nH]c2cccc(O)c2c1=O [Compound 596, N-(5-fluoro-1H-indol-6-yl)-5-hydroxy-4-oxo-1H-quinoline-3-carboxamide]
< 10 µM | ++ (between 25% to 100%) | O=C(Nc1ccccc1-c1cc2ccccc2[nH]1)c1c[nH]c2ccccc2c1=O [Compound 38, N-[2-(1H-indol-2-yl)phenyl]-4-oxo-1H-quinoline-3-carboxamide]
< 10 µM | ++ (between 25% to 100%) | O=C(Nc1ccc2c(c1)NCCC2)c1c[nH]c2ccccc2c1=O [Compound 299, 4-Oxo-N-(1,2,3,4-tetrahydroquinolin-7-yl)-1H-quinoline-3-carboxamide]
< 10 µM | ++ (between 25% to 100%) | O=C(Nc1cc(OCc2ccccc2)c(C2CCCCC2)cc1C(F)(F)F)c1c[nH]c2ccccc2c1=O [Compound 654, N-[5-benzyloxy-4-cyclohexyl-2-(trifluoromethyl)phenyl]-4-oxo-1H-quinoline-3-carboxamide]
25 to 60 µM | + (<25%) | NS(=O)(=O)c1ccc(NC(=O)c2c[nH]c3ccccc3c2=O)cc1 [Compound 165, 4-oxo-N-(4-sulfamoylphenyl)-1H-quinoline-3-carboxamide]
< 10 µM | ++ (between 25% to 100%) | Cc1cccc2[nH]cc(C(=O)Nc3ccc(N4[C@H](C)CC[C@@H]4C)cc3C(F)(F)F)c(=O)c12 [Compound 592, N-(4-((2R,5S)-2,5-dimethylpyrrolidin-1-yl)-2-(trifluoromethyl)phenyl)-5-methyl-4-oxo-1,4-dihydroquinoline-3-carboxamide]
< 10 µM | +++ (>100%) | CC(C)(C)OC(=O)[C@H]1CCCN1c1ccc(NC(=O)c2c[nH]c3ccccc3c2=O)c(C(F)(F)F)c1 [Compound 540, (R)-tert-butyl 1-(4-(4-oxo-1,4-dihydroquinoline-3-carboxamido)-3-(trifluoromethyl)phenyl)pyrrolidine-2-carboxylate]
